This is an account of results in US7196074B2, “Methods of making, using and pharmaceutical formulations comprising 7α, 11β-dimethyl-17β-hydroxyestra-4, 14-dien-3-one and 17 esters thereof” (The United States of America as represented by the …, priority 2000, dated 2007).

For data set [1], the system named is ventral prostate weight. As to the kind of experiment: Duration of androgenic activity after subcutaneous injection, ventral prostate weight over weeks in orchidectomized immature rats. The data set is classed as in vivo, Sprague-Dawley rats. The settings on record: for ventral prostate weight over time after single subcutaneous injection (in words): 0.6 mg in 0.2 ml aqueous vehicle; for AUC of ventral prostate weight, times greater than for testosterone enanthate in oily carrier: active in aqueous vehicle versus testosterone enanthate in sesame oil/oily carrier, single subcutaneous 0.6 mg. As for the experimental part:
Immature (about 21-day-old) Sprague-Dawley rats were orchidectomized under anesthesia, and randomly assignee to groups of ten animals for each dose level of the active undergoing testing. Each active was administered by subcutaneous injection each day for seven days beginning on the date of the orchidectomy. The animals were sacrificed 24 hours after the last dose, and the ventral prostate and seminal vesicles were excised, cleaned of fat and connective tissue, blotted on moist filter paper and weighed to the nearest 0.1 mg. Regression analysis was performed by conventional methods using a PROPHET data management system. Ventral prostate weight was used as the endpoint because it is the sensitive organ to androgenic stimulation.
Except for testosterone enanthate, each active was formulated in two different carriers: (1) an aqueous suspension and (2) in sesame oil. Testosterone enanthate was formulated using the sesame oil carrier only, because it exists as a liquid at room temperature and could not therefore be formulated as an aqueous suspension.
The carrier used to provide the aqueous suspension was formulated as follows: 1 g benzyl alcohol, 0.5 g sodium carboxylethyl cellulose 50, 0.376 g disodium hydrogen phosphate dihydrate, 1.495 g sodium dihydrogen phosphate dihydrate, with water for injection (WFI) being added to bring volume of the carrier up to 100 ml.
Each formulation was prepared at a concentration of 0.6 mg/0.2 ml.
(§1) Immature (about 21-day-old) Sprague-Dawley rats were orchidectomized under anesthesia, and randomly assignee to groups of 40 or more. Animals received a single subcutaneous injection of 0.6 mg of each ester in 0.2 ml of an aqueous suspending carrier and/or oily carrier (10% ethanol/90% sesame oil or ethyl oleate) on the date of the orchidectomy. In cases where the ester was not solid at room temperature, 10% ethanol/sesame oil or ethyl oleate was used as the carrier. In this example, the carrier used to provide the aqueous suspension was formulated as follows: 1 g benzyl alcohol, 0.5 g sodium carboxylethyl cellulose 50, 0.376 g disodium hydrogen phosphate dihydrate, 1.495 g sodium dihydrogen phosphate dihydrate, with water for injection (WFI) being added to bring volume of the carrier up to 100 ml.
Five animals from each group were sacrificed at weekly or biweekly intervals, and the ventral prostate and seminal vesicles were excised, cleaned of fat and connective tissue, blotted on moist filter paper and weighed to the nearest 0.1 mg.
Ventral prostate weight was used as the endpoint because it is the sensitive organ to androgenic stimulation. Regression analysis was performed by conventional methods using the PROPHET data management system previously identified.
Immature (about 21-day-old) Sprague-Dawley rats were orchidectomized under anesthesia, and randomly assignee to groups of 40 or more. Animals received a single subcutaneous injection of 0.6 mg of the undecanoate in 0.2 ml of an aqueous suspending carrier and/or oily carrier (10% ethanol/90% sesame oil containing 5 mg/ml chlorobutanol as a preservative, or ethyloleate) on the date of the orchidectomy. The enanthate ester was formulated using the 10% ethanol/sesame oil or ethyloleate carrier as a first standard, with the 10% ethanol/sesame oil carrier used as a second standard.
In this example, the carrier used to provide the aqueous suspension was formulated as follows: 1 g benzyl alcohol, 0.5 g sodium carboxylethyl cellulose 50, 0.376 g disodium hydrogen phosphate dihydrate, 1.495 g sodium dihydrogen phosphate dihydrate, with water for injection (WFI) being added to bring volume of the carrier up to 100 ml.
Immature (about 21-day-old) Sprague-Dawley rats were orchidectomized under anesthesia, and randomly assignee to groups of 40 or more. […] The enanthate ester was formulated using the 10% ethanol/sesame oil or ethyloleate carrier as a first standard, with the 10% ethanol/sesame oil carrier used as a second standard.

The nature of data set [2]: Serum levels of the free alcohol after single subcutaneous injection of ester. The format is in vivo, Sprague-Dawley rats. The settings on record: single subcutaneous 0.6 mg suspended in aqueous carrier; 10 week observation period, FIG. 10. As for the experimental part:
as §1

The structures appear in SMILES notation.

For `CCCCCCCCCCC(=O)O[C@H]1CC[C@H]2[C@H]3[C@H]([C@@H](C)C[C@]12C)[C@H]1CCC(=O)C=C1C[C@H]3C` [Compound II, 7α,11β-dimethyl-17β-hydroxyestr-4-en-3-one 17-undecanoate], the “ventral prostate weight over time after single subcutaneous injection (in words)” value in data set [1] (listed as CDB-4521) was “most dramatic increases and maintenance of ventral prostate weight”. Further, the “AUC of ventral prostate weight, times greater than for testosterone enanthate in oily carrier” value in data set [1] is reported as “about 3 times”. Besides, the “area under the curve (AUC, trapezoidal rule) of ventral prostate weight” value in data set [1] (single subcutaneous 0.6 mg in aqueous vehicle, 10 week period, FIG. 15) worked out at 1817 mg-weeks.

As for `CCCC[C@H]1CC[C@H](C(=O)O[C@H]2CC[C@H]3[C@H]4[C@H]([C@@H](C)C[C@]23C)[C@H]2CCC(=O)C=C2C[C@H]4C)CC1` (relative stereo) [Compound I, 7α,11β-Dimethyl-17β-hydroxy-4-estren-3-one 17β-trans-4-n-butylcyclohexane carboxylate], in data set [1], the “ventral prostate weight over time after single subcutaneous injection (in words)” value is “most dramatic increase and maintenance of ventral prostate weight”; the “AUC of ventral prostate weight, times greater than for testosterone enanthate in oily carrier” value is “about 3 times”. Besides, the “activity in potency and duration after subcutaneous injection (in words), FIG. 5” value in data set [1] (0.6 mg/0.2 ml, aqueous suspension or sesame oil, ventral prostate weight) was “far exceeds the activity exhibited by the comparative esters”. Further, in data set [1] (single subcutaneous 0.6 mg suspended in aqueous carrier, FIG. 9), the “AUC of ventral prostate weight over the 10-week period, rank among bucyclate esters” value was “greatest AUC”. In addition, the “serum levels of the free alcohol (7α,11β-dimethyl-19-nortestosterone)” value in data set [2] is listed as “highest levels of the free alcohol”.
